Patent US20030124132A1 (University of Texas, published 2003)

Columns and labels:
C1300 Muγ tumors = experiment: Anti-tumor effects of tTF and immunoglobulin-tTF in C1300 Muγ tumors; type: in vivo, nu/nu mice; conditions: tTF alone or mixed with control bispecific antibodies
Description: The tumor test systems were: i) L540 human Hodgkin's disease tumors growing in SCID mice; ii) C1300 Muγ (interferon-secreting) neuroblastoma growing in nu/nu mice; iii) H460 human non-small cell lung carcinoma growing in nu/nu mice. To establish solid tumors, 1.5×10^7 tumor cells were injected subcutaneously into the right anterior flank of SCID or BALB/c nu/nu mice (Charles River Labs., Wilmingham, Mass.). When the tumors had grown to various diameters, mice were assigned to different experimental groups, each containing 4 to 9 mice.
Other mice received equivalent quantities of bispecific antibody alone. The injections were performed over ˜45 seconds into one of the tail veins, followed by 200 μl of saline. The infusions were repeated six days later. Perpendicular tumor diameters were measured at regular intervals and tumor volumes were calculated.
Mice bearing small (300 mm^3) C1300 Muγ tumors were injected intravenously with 16-20 μg tTF219. The treatment was repeated one week later. […] One week after the second treatment with tTF219, tumors were 60% of the size of tumors in mice receiving diluent alone. The greater effectiveness of the second injection probably derives from the greater thrombotic action of tTF219 on vessels in large tumors, observed above.
Mice bearing small (300 mm^3) subcutaneous C1300 Muγtumors were treated with tTF219 or with a complex of tTF219 and a bispecific antibody, OX7 Fab′/10H10 Fab′, not directed to a component of the tumor environment. The treatment was repeated 6 days later.

TNFα = TNFα serum levels in treated animals (Quantikine-M kit); type: in vivo, mice; conditions: tTF containing no endotoxin (n=6); any of the time points
Description: (§1) Mice were closely observed after treatment for clinical signs of toxicity and clinical status was documented at defined time points (5 minutes, 10 minutes, 15 minutes, 30 minutes. 1 hour, 2 hours, 24 hours, 48 hours, 72 hours). Blood samples were taken from the tail vein at 1 hour, 2 hours and 24 hours to measure TNFα blood levels. Three days after treatment, the mice were anesthetized, blood samples were taken from the vena cava for coagulation tests, and an autopsy was performed to document any changes in gross pathology. Tumors, lymph node metastases and the major normal organs (heart, lung, brain, liver, kidney, colon, spleen, pancreas) were harvested and prepared for histological analysis.
TNFα levels in serum were deter-mined using the Quantikine-M kit (R&D Systems, Minneapolis, Minn.) according to the manufacturer's instructions.

bEnd 3 cells = experiment: Cell bound coagulation assay on stimulated endothelial cells (Factor Xa generation); type: cell-based, mouse; conditions: for Factor Xa generation due to Factor VIIa production: mix with 2 μg/ml factor VII and 0.01 μg/ml factor VIIa; for Factor Xa generation: mix with 0.5 μg/ml factor VIIa
Description: (§2) To assay the coagulation induction of stimulated versus unstimulated endothelial cells, bend 3 cells were seeded in 48 well tissue culture plates at a density of 1×10^4 cells per well and allowed to adhere overnight. Cells were stimulated with endotoxin (0.5 μg/ml and 10 μg/ml) or TNFα (500 U/ml) for 4 h at 37° C. […] After incubation for 45 min at room temperature, cells were washed and incubated with various coagulation factor mixes as follows: (1) 0.5 μg/ml factor VIIa in a mix containing 2.8 μg/ml factor IX, 3.4 μg/ml factor X, 50 μM phospholipids, in calcium buffer (as specified above); (2) 0.01 μg/ml factor VIIa in a mix as in (1); (3) 2 μg/ml factor VII (Calbiochem-Novabiochem, San Diego, Calif.) in a mix as in (1); (4) 2 μg/ml factor VII. 0.01 μg/ml factor VIIa in a mix as in (1). The supernatant of wells was transferred into a 96 well ELISA plate. Substrate S2765 was added and Factor Xa generation measured alongside different concentrations of Factor Xa standard (7 nkatS2222; 0.7 nkatS2222; 0.07 nkatS2222). OD405 nm values were calculated as nkatS2222 Factor Xa from the Factor Xa standard curve.
as §2, with “bEnd” for “To assay the coagulation induction of stimulated versus unstimulated endothelial cells, bend”, “with” for “with various”, “mix” for “mixes”, “follows:” for “follows: (1)”, “buffer;” for “buffer (as specified above); (2) 0.01 μg/ml factor VIIa in a mix as in (1); (3) 2 μg/ml factor VII (Calbiochem-Novabiochem, San Diego, Calif.) in a mix as in (1); (4) 2 μg/ml factor VII. 0.01 μg/ml factor VIIa in a mix as in (1). The”

[1] = test system: L540rec human Hodgkin's lymphoma tumors; experiment: Tumor tissue necrosis in L540 Hodgkin's lymphoma-bearing mice after tTF and/or endotoxin; type: in vivo, SCID mice
Description: For in vivo studies, a metastasizing mouse model for human Hodgkin's lymphoma was used. 1×10^7 L540rec cells were injected subcutaneously into the right flank of SCID mice resulting in a subcutaneous tumor with lymph node metastases in the regional lymph node stations. Subcutanous tumors were measured with a caliper in three perpendicular directions a. b, and c, and volumes calculated according to the formula V=π/6×a×b×c.
(§3) Treatment was initiated when subcutaneous tumors reached a size of 150 to 300 μl. Reagents were administered into the lateral tail vein.
as §1
(§4) Tissue samples harvested at the time of autopsy were fixed in 3% NBF (normal buffered formalin) and embedded in paraffin wax. Tissue blocs were cut, dewaxed and stained with hematoxilin and eosin (H&E). Tissue sections were analyzed on a light microscope by two independent investigators and histological findings were documented. Tumor sections with necrotic areas were scanned with a GS-700 imaging densitometer (Biorad, Hercules, Calif.) and areas of necrosis were calculated as % of total section area. Statistical Analysis was performed using SPSS software (SPSS Science Software, Erkrath, Germany) applying the Mann-Whitney-U-test for ungrouped data.

[2] = Clinical signs of toxicity and histology of normal organs in treated tumor-bearing mice; type: in vivo, SCID mice; conditions: for Symptoms (clinical signs of toxicity): endotoxin-free tTF alone
Description: as §3, §1, §4

Substance: tTF: extracellular domain of the mature Tissue Factor protein (amino acid 1-219), recombinant; depyrogenated in Example X
- tumor growth versus antibodies or saline alone (C1300 Muγ tumors): grew significantly more slowly
- TNFα in serum (TNFα): could not be detected
- Factor Xa generation due to Factor VIIa production (bEnd 3 cells; cells stimulated with 0.5 μg/ml LPS (row Medium = stimulant alone)): 3.00 nkats2222
- Factor Xa generation (bEnd 3 cells; cells stimulated with 0.5 μg/ml LPS, then incubated with row agent (row Medium = stimulant alone)): 2.00 nkats2222
- Factor Xa generation (bEnd 3 cells; cells stimulated with 10 μg/ml LPS, then incubated with row agent (row Medium = stimulant alone)): 2.91 nkats2222
- Factor Xa generation (bEnd 3 cells; cells stimulated with TNFα (500 U/ml), then incubated with row agent (row Medium = stimulant alone)): 0.67 nkats2222
- Factor Xa generation due to Factor VIIa production (bEnd 3 cells; cells stimulated with TNFα (row Medium = stimulant alone)): 1.91 nkats2222
- Factor Xa generation (bEnd 3 cells; cells stimulated with medium, then incubated with row agent): 0.40 nkats2222
- Factor Xa generation due to Factor VIIa production (bEnd 3 cells; cells stimulated with medium): 0.70 nkats2222
- % tumor necrosis ([1]; Table 2, tTF alone, three days after i.v. treatment): 4%
- tumor tissue necrosis ([1]; endotoxin-free tTF alone, 4 μg or 16 μg i.v., three days after treatment): 0%
- anti-tumor effect ([1]; tTF alone, 4 μg to 16 μg): no anti-tumor effect
- anti-tumor effect ([1]; tTF alone, 100 μg): anti-tumor effects begin to appear
- Symptoms (clinical signs of toxicity) [2]: no clinical signs of toxicity
- Symptoms (clinical signs of toxicity) ([2]; listed as TTF): None
- histology of normal organs (necrosis, thrombosis, abnormalities) ([2]; light microscopy, three days after treatment): No histological abnormalities were seen
